This passage reports inhibition results from PMC10107027 (RSC Advances, 2023).

As usually defined, the inhibition is the change of the read-out against control, counted positive when it falls.

This assay has as its target T1, Neutrophil elastase enzyme (HNE) (Homo sapiens, UniProt P08246).
T1 sequence (P08246 30-267): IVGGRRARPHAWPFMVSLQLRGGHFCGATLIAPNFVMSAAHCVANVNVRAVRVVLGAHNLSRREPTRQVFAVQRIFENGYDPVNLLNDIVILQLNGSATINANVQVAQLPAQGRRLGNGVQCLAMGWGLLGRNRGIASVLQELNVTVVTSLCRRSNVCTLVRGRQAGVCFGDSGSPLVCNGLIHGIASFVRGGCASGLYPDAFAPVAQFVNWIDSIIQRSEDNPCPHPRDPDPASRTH
The assay can be described thus: Neutrophil elastase inhibitor activity. In kind it is biochemical. The note with it: read-out: Degree of HNE inhibition (Mean).
Regarding `NC(=S)NNC(=O)CC1C(=O)c2ccccc2C1=O` [IDC2, 2-(2-(1,3-Dioxo-2,3-dihydro-1H-inden-2-yl)acetyl)hydrazine-1-carbothioamide], the inhibition at 0.1 µM is 16.3%, the inhibition at 1 µM came to 18.9%, the inhibition at 10 µM came out at 21.5% and the inhibition at 50 µM was 24.8%. The inhibition at 100 µM is 28.8%.
With `O=C(CC1C(=O)c2ccccc2C1=O)NNC(=S)N=Cc1cccc([N+](=O)[O-])c1` [IDC7, 2-(2-(1,3-Dioxo-2,3-dihydro-1H-inden-2-yl)acetyl)-N-(3-nitrobenzylidene)hydrazine-1-carbothioamide], the inhibition at 0.1 µM worked out at 12%, the inhibition at 1 µM amounted to 16.7%, the inhibition at 10 µM came to 24.6% and the inhibition at 50 µM stood at 25.8%. For the same compound, the inhibition at 100 µM came to 26.7%.
On to `NNC(=O)CC1C(=O)c2ccccc2C1=O` [IDH1, 2-(1,3-Dioxo-2,3-dihydro-1H-inden-2-yl)acetohydrazide], for which the inhibition at 0.1 µM is 18.6%, the inhibition at 1 µM stood at 21.6%, the inhibition at 10 µM amounted to 28.7% and the inhibition at 50 µM is 30.1%. Besides, the inhibition at 100 µM was 36.5%.
Take `CC(C)(C)C(=O)Oc1ccc(S(=O)(=O)Nc2ccccc2C(=O)NCC(=O)O)cc1` [Sivelestat, reference compound]: the inhibition at 0.1 µM was found to be 96.2%, the inhibition at 1 µM turned out to be 98.5%, the inhibition at 10 µM amounted to 98.6% and the inhibition at 50 µM is 98.5%. The inhibition at 100 µM came out at 99.8%.
